{"source": "patent US20240391912A1", "about": "“MORPHIC FORMS OF CFT7455 AND METHODS OF MANUFACTURE THEREOF” (C4 THERAPEUTICS, INC., priority 2022, published 2024)", "key": {"[1]": {"assay": "Approximate solubility of Compound 5 polymorphs in EtOH:DCM (v:v=1:4)", "type": "physicochemical", "settings": "EtOH:DCM (v:v = 1:4), 25° C.", "description": "Four polymorphs (Form V, Form VI, Form VII and Form VIII) were weighed respectively and a suitable amount of solvent mixture EtOH:DCM (v:v=1:4) was added. The obtained samples were stirred at a rate of 400 rpm at 25° C."}, "[2]": {"assay": "Characterization of polymorphs and pseudo-polymorphs of Compound 5", "type": "physicochemical"}, "[3]": {"assay": "Solubility of Compound 5 Form VI and Form VIII at 25° C., equilibration for 24 hours (HPLC; XRPD of residual solids)", "type": "physicochemical", "description": "11 mg (for 20 mg/mL target concentration) or 22 mg (for 50-60 mg/mL target concentration) of Compound 5 Form VI and Form VIII (equivalent to 10 mg or 20 mg of anhydrate free base) was weighed into a 4 mL glass vial, respectively. Up to 0.5 mL of potential eluent medium was added. The obtained suspensions/solutions were stirred at 25° C. at 400 rpm for 24 hours and then centrifuged at 25° C. at 14,000 rpm for 5 minutes. The residual solids were characterized by XRPD to determine the physical form. The supernatants (0.1 mL) were evaporated at about 22-25° C./30-60% RH."}, "[4]": {"assay": "Bulk stability of Compound 5 Form VI and Form VIII at 25° C./60% RH, open container, 1 week (XRPD, HPLC, color)", "type": "physicochemical", "settings": "listed as Form VIII", "description": "Compound 5 Form VI and Form VIII were placed at 25° C./60% RH in an open container over 1 week. Samples after the stress were characterized by XRPD and HPLC and inspected for color change."}, "[5]": {"assay": "Crystallization of Compound 1 at room temperature by slow evaporation (XRPD)", "type": "physicochemical", "settings": "25° C./92% RH for 2 days", "description": "About 20 mg of Compound 1 Form I (free form) was dissolved and filtered by 0.45 μm nylon filter. Obtained solutions were evaporated slowly at ambient condition. Solid residues were examined for their polymorphic form."}, "[6]": {"assay": "Scale-up experiment (200 mg) and characterization of new polymorphs of Compound 1", "type": "physicochemical", "settings": "for X-ray diffraction: 3-40° (2 theta), XRPD method 1; for Thermogravimetry weight loss / water corresponding to TGA weight loss: TGA", "description": "Scale-up 1: About 200 mg of Compound 1 Form I was dissolved in 10 mL THF/Water (95:5, v:v) at 40° C. […] Compound 1 Form IV was obtained. It was subjected to characterization.\nScale-up 2: About 200 mg of Compound 1 Form I was dissolved in 10 mL THF/Water (95:5, v:v) at 40° C. […] It was subjected to characterization."}, "[7]": {"assay": "Competitive equilibration experiment of Compound 1 Form I and Form IV for 1 week", "type": "physicochemical", "settings": "for XRPD / form obtained in competitive equilibration: 1 week; for form obtained in competitive equilibration: 25° C.", "description": "About 10 mg of Compound 1 Form I and 10 mg Compound 1 Form IV were added to 0.8 mL saturated solution in selected solvent. Obtained suspensions were stirred at 400 rpm and 25° C. for 1 week. Solids obtained were separated by filtration and characterized by XRPD."}, "[8]": {"test_system": "OCI-LY10 human DLBCL intracranial xenografts", "assay": "OCI-LY10 human DLBCL intracranial xenograft study, survival", "settings": "for Median Survival (Days), ± SEM / Survival time extension (%): Rituximab, i.v., QW", "quoted_text": "Agents were tested in the OCI-LY10 human DLBCL intracranial model. […] Rituximab was administered from day 1 via i.v. once per week. Rituximab was dosed at 10 and 30 mg/kg. Individual mouse was euthanized once its body weight loss was over 20%.\nThe cells growing in an exponential growth phase were harvested and counted for tumor inoculation.\n99 CB17 SCID mice were inoculated by intracranial injection with OCI-LY10 cells (1×10^6) for tumor development.\nTumor inoculation: Intraperitoneally injected avertin at dosage of 240 mg/kg to anaesthetize the CB17 SCID mice. Fixed the head of the anaesthetized mice to the brain solid positioner, sterilized the head skin with 70% alcohol. […] Punched a hole about 2 mm right of the anterior fontanel and 1 mm ahead the coronal on the skull with a 25 G needle. Cell suspensions were mixed and certain amount was sucked into the 5 μL injector slowly to avoid bubble formation. The cells were swapped around the needle with alcohol to avoid extracranial tumor genesis. The needle was stuck vertically into the formed hold and 5 μL of cell suspension containing 1×10^6 OCI-LY10 cells was slowly injected for over 1 minute. The injector was then held for another 1 minute and then pulled back to decrease the drainage of the cells suspension. The skin was closed with tweezers and then sewed. Meloxicam was then injected 30 min after the surgery at dosage of 5 mg/kg to relieve the pain. The animals were kept under monitoring until they were awake.\nAnimals were grouped for treatment on day 7 after tumor inoculation.\nAt the time of routine monitoring, the animals were daily checked for any effects of tumor growth and treatments on normal behavior such as mobility, food and water consumption (by looking only), body weight gain/loss (body weights were measured twice weekly), eye/hair matting and any other abnormal effect as stated in the protocol. Death and observed clinical signs were recorded on the basis of the numbers of animals within each subset."}, "[9]": {"settings": "THF/water (v:v = 1:2.5), 25° C., 24 hours, target conc. 20 mg/mL, listed as Form VIII"}}}
{"molecule": "O=C1CCC(N2C(=O)c3cccc4c(Cc5ccc(CN6CCOCC6)cc5)ccc2c34)C(=O)N1", "note": "(racemic) [Compound 5 Form VIII]", "values": [{"measurement": "Approximate solubility (visual appearance)", "setting": "[1]; concentration 10 mg/mL, listed as Form VIII", "result": "Few solids"}, {"measurement": "Approximate solubility (visual appearance)", "setting": "[1]; concentration 20 mg/mL, listed as Form VIII", "result": "Few solids"}, {"measurement": "Dehydration and evaporation of solvent from (by DSC)", "setting": "[2]; DSC", "result": "about 8° C.;"}, {"measurement": "Enthalpy (by DSC)", "setting": "[2]; DSC, listed as Form VIII", "result": 105, "unit": "J/g"}, {"measurement": "Melting onset Tonset (by DSC)", "setting": "[2]; DSC, listed as Form VIII", "result": "Tonset 231.4° C.,"}, {"measurement": "Weight loss (by TGA)", "setting": "[2]; at 200° C.", "result": 4.7, "unit": "% at 200 °C"}, {"measurement": "Residual ion (by IC): Br−", "setting": "[2]; listed as Form VIII", "result": "Br^−: 0.01 equiv."}, {"measurement": "Residual ion (by IC): Cl−", "setting": "[2]; listed as Form VIII", "result": "Cl^−: 0.005 equiv.;"}, {"measurement": "Residual ion (by IC): Li+", "setting": "[2]; listed as Form VIII", "result": "Li^+: 0.04 equiv.;"}, {"measurement": "Residual ion (by IC): Na+", "setting": "[2]; listed as Form VIII", "result": "Na^+: 0.01 equiv."}, {"measurement": "solubility", "setting": "[3]; EtOH/DCM (v:v = 1:4), 25° C., 24 hours, target conc. 50-60 mg/mL, LOQ 0.8 μg/mL, listed as Form VIII", "result": 39, "unit": "mg/mL"}, {"measurement": "physical form after solubility test", "setting": "[3]; EtOH:DCM (v:v=1:4), 25° C., 24 h", "result": "Physical mixture of Form V and Form VI"}, {"measurement": "XRPD of residual solids", "setting": "[3]; MeOH/DCM (v:v = 1:2), 25° C., 24 hours, target conc. 50-60 mg/mL", "result": "Form V"}, {"measurement": "physical form after solubility test", "setting": "[3]; MeOH:DCM (v:v=1:2) and THF:water (v:v=1:2.5), 25° C., 24 h", "result": "converted to Form V"}, {"measurement": "solubility", "setting": "[3]; THF/IPA (v:v = 1:2), 25° C., 24 hours, target conc. 20 mg/mL, listed as Form VIII", "result": 1, "unit": "mg/mL"}, {"measurement": "XRPD of residual solids", "setting": "[3]; [9]", "result": "Form V"}, {"measurement": "solubility", "setting": "[3]; [9]", "result": 0.5, "unit": "mg/mL"}, {"measurement": "physical form after solubility test", "setting": "[3]; THF:2-propanol (v:v=1:2) and THF:Heptane (v:v=1:2), 25° C., 24 h", "result": "converted to Form VI"}, {"measurement": "solubility", "setting": "[3]; in EtOH/DCM (v:v=1:4), about 25° C., 24 h, listed as Form VIII", "result": "~39", "unit": "mg/mL"}, {"measurement": "solubility", "setting": "[3]; in MeOH:DCM (v:v=1:2) and EtOH:DCM (v:v=1:4), 25° C. for 24 h, listed as Form VIII", "result": "30 to 40", "unit": "mg/mL"}, {"measurement": "bulk stability, physical (form)", "setting": "[4]", "result": "converted to Form V"}, {"measurement": "Bulk (HPLC) Purity", "setting": "[4]; solid state, initial purity 93.1% (Form VI), 95.6% (Form VIII)", "result": 95.6, "unit": "%"}, {"measurement": "Bulk (XRPD)", "setting": "[4]; solid state", "result": "Form V"}]}
{"molecule": "O=C1CCC(N2C(=O)c3cccc4c(Cc5ccc(CN6CCOCC6)cc5)ccc2c34)C(=O)N1", "note": "(racemic) [Compound 5 Form VII]", "values": [{"measurement": "Approximate solubility (visual appearance)", "setting": "[1]; concentration 10 mg/mL, listed as Form VII", "result": "Suspension"}, {"measurement": "Approximate solubility (visual appearance)", "setting": "[1]; concentration 20 mg/mL, listed as Form VII", "result": "Suspension"}, {"measurement": "Residual solvent (by 1H-NMR): NMP", "setting": "[2]; 2 unknown peaks", "result": "1.6 equiv. NMP;"}]}
{"molecule": "O=C1CC[C@H](N2C(=O)c3cccc4c(Cc5ccc(CN6CCOCC6)cc5)ccc2c34)C(=O)N1", "note": "[Compound 1 Form II, (S)-3-(6-(4-(morpholinomethyl)benzyl)-2-oxobenzo[cd]indol-1(2H)-yl)piperidine-2,6-dione]", "values": [{"measurement": "Notes (form stability under humidity)", "setting": "[5]", "result": "No form change at 25° C./92% RH"}, {"measurement": "Stoichiometry: MeOH", "setting": "[6]; 1H-NMR", "result": 1.0, "unit": "equiv."}, {"measurement": "Stoichiometry: DCM", "setting": "[6]; 1H-NMR, listed as Form II", "result": 0.3, "unit": "% DCM and"}, {"measurement": "X-ray diffraction", "setting": "[6]; listed as Form II", "result": "Crystalline"}, {"measurement": "Form change at 25° C./92% RH", "setting": "[6]; 25° C./92% RH for 2 days", "result": "No form change"}, {"measurement": "DSC: Methanol desolvation", "setting": "[6]; DSC, 10° C./min", "result": "at 103.1 °C"}, {"measurement": "Thermogravimetry weight loss", "setting": "[6]; 10° C./min, at 125° C.", "result": "About 7.1%"}]}
{"molecule": "O=C1CC[C@H](N2C(=O)c3cccc4c(Cc5ccc(CN6CCOCC6)cc5)ccc2c34)C(=O)N1", "note": "[Compound 1 Form III, (S)-3-(6-(4-(morpholinomethyl)benzyl)-2-oxobenzo[cd]indol-1(2H)-yl)piperidine-2,6-dione]", "values": [{"measurement": "X-ray diffraction", "setting": "[6]; listed as Form III", "result": "Crystalline"}, {"measurement": "Thermogravimetry weight loss", "setting": "[6]; 10° C./min, at 120° C.", "result": "About 5.8%"}, {"measurement": "water corresponding to TGA weight loss", "setting": "[6]; 10° C./min, listed as Form III", "result": "120 °C (1.5 equiv."}]}
{"molecule": "O=C1CC[C@H](N2C(=O)c3cccc4c(Cc5ccc(CN6CCOCC6)cc5)ccc2c34)C(=O)N1", "note": "[Compound 1 Form IV, (S)-3-(6-(4-(morpholinomethyl)benzyl)-2-oxobenzo[cd]indol-1(2H)-yl)piperidine-2,6-dione]", "values": [{"measurement": "X-ray diffraction", "setting": "[6]; listed as Form IV", "result": "Crystalline"}, {"measurement": "Thermogravimetry weight loss", "setting": "[6]; 10° C./min, at 105° C.", "result": "About 1.3%"}, {"measurement": "water corresponding to TGA weight loss", "setting": "[6]; 10° C./min, listed as Form IV", "result": "105 °C (0.4 equiv."}, {"measurement": "stability of the form", "setting": "[7]; THF/water systems with high water activity", "result": "stable"}]}
{"molecule": "O=C1CC[C@H](N2C(=O)c3cccc4c(Cc5ccc(CN6CCOCC6)cc5)ccc2c34)C(=O)N1", "note": "[Form I + Form IV]", "values": [{"measurement": "XRPD", "setting": "[7]; THF/Water (63.9:36.1, v:v), a.w. 1.0, 25° C.", "result": "Form IV"}, {"measurement": "XRPD", "setting": "[7]; THF/Water (86.9:13.1, v:v), a.w. 0.8, 25° C.", "result": "Form IV"}, {"measurement": "XRPD", "setting": "[7]; THF/Water (92.3:7.7, v:v), a.w. 0.6, 25° C.", "result": "Form IV"}, {"measurement": "XRPD", "setting": "[7]; THF/Water (97.0:3.0, v:v), a.w. 0.3, 25° C.", "result": "Form I"}, {"measurement": "XRPD", "setting": "[7]; THF/Water (98.1:1.9, v:v), a.w. 0.2, 25° C.", "result": "Form I"}, {"measurement": "XRPD", "setting": "[7]; THF/Water (99.1:0.9, v:v), a.w. 0.1, 25° C.", "result": "Form I"}]}
{"molecule": "O=C1CC[C@H](N2C(=O)c3cccc4c(Cc5ccc(CN6CCOCC6)cc5)ccc2c34)C(=O)N1", "note": "[Form I and Form IV]", "values": [{"measurement": "form obtained in competitive equilibration", "setting": "[7]; DMSO/water system, all selected water activity mixtures", "result": "physical mixtures of Form I and Form IV"}, {"measurement": "form obtained in competitive equilibration", "setting": "[7]; THF/water system, a.w.≤0.3", "result": "Form I (anhydrate)"}, {"measurement": "form obtained in competitive equilibration", "setting": "[7]; THF/water system, water activity (a.w.)≥0.6", "result": "Form IV (hydrate)"}]}
{"molecule": "rituximab: CD20 inhibitor; targeted antibody", "values": [{"measurement": "Median Survival (Days), ± SEM", "setting": "[8]; 10 mg/kg", "result": "17.00 ± 0.46", "unit": "days"}, {"measurement": "Survival time extension (%)", "setting": "[8]; 10 mg/kg", "result": 21.4, "unit": "%"}, {"measurement": "Median Survival (Days), ± SEM", "setting": "[8]; 30 mg/kg", "result": "16.00 ± 0.94", "unit": "days"}, {"measurement": "Survival time extension (%)", "setting": "[8]; 30 mg/kg", "result": 14.3, "unit": "%"}, {"measurement": "extension of survival time", "setting": "[8]; rituximab 10 mg/kg i.v. once per week, p=0.001", "result": 21.4, "unit": "%"}, {"measurement": "extension of survival time", "setting": "[8]; rituximab 30 mg/kg i.v. once per week, p=0.085", "result": 14.3, "unit": "%"}]}
